This is an account of results in patent publication US7517658B2, “Methods for preparing compositions using a SNORF33 receptor” (H. Lundbeck A/S, priority 1999, dated 2009).

The target in experiment [1] is T1, mouse SNORF33 (Mus musculus, UniProt Q923Y8).
T1 construct: expressed in transfected cells; host or cells: COS-7 (membranes)
Put plainly: [3H]-TYR binding (saturation and displacement) to mouse SNORF33 COS-7 membranes. To be noted: mouse SNORF33, displacement of [3H]TYR. Here is the method: (§1) [^3H]-TYR and [^3H]-T binding assays were performed essentially as described by Mallard et al. (1992), with minor modifications. Radioligand binding assays were performed by diluting membranes prepared from cells expressing the receptor (with co-expression of the rat G-protein alpha S subunit for human SNORF33) in 25 mM Gly-Gly buffer (Sigma, pH=7.4 @ 0° C.) containing 5 mM ascorbate and 10 μM pargyline (final protein concentration in assay=100-300 μg/ml). Membranes were then incubated with either [^3H]-TYR (American Radiochemicals, specific activity 60 mCi/μmole) or [^3H]-T (Amersham, specific activity 98 mCi/μmole) in the presence or absence of competing ligands on ice for 30 min in a total volume of 250 μl in 96 well microtiter plates. The bound ligand was separated from free by filtration through GF/B filters presoaked in 0.5% polyethyleneimine (PEI), using Tomtec (Wallac) or Brandel Cell Harvester vacuum filtration device. After addition of Ready Safe (Beckman) scintillation fluid, bound radioactivity was quantitated using a Trilux (Wallac) scintillation counter (approximately 20% counting efficiency of bound counts). Data was fit to non-linear curves using GraphPad Prism.
(§2) In this manner, agonist or antagonist compounds that bind to the receptor may be identified as they inhibit the binding of the labeled ligand to the membrane protein of cells expressing the said receptor. Non-specific binding was defined as the amount of radioactivity remaining after incubation of membrane protein in the presence of 10 μM of the unlabeled amine corresponding to the radioligand used. In equilibrium saturation binding assays, membrane preparations or intact cells transfected with the receptor are incubated in the presence of increasing concentrations of the labeled compound to determine the binding affinity of the labeled ligand. The binding affinities of unlabeled compounds may be determined in equilibrium competition binding assays, using a fixed concentration of labeled compound in the presence of varying concentrations of the displacing ligands.

The target in experiment [2] is T2, rSNORF33 (Rattus norvegicus, UniProt Q923Y9). Put plainly: [3H]-TYR binding (saturation and displacement) to rSNORF33-transfected COS-7 membranes. To be noted: rSNORF33 in transfected COS-7 membranes; 2–4 experiments; read-out: Mean Ki ± S.D.M., displacement of [3H]-tyramine. Also noted: expressed in transfected cells; host or cells: COS-7 (transient). Here is the method:
as §1, with “Radioligand” for “[^3H]-TYR and [^3H]-T binding assays were performed essentially as described by Mallard et al. (1992), with minor modifications. Radioligand”
as §2
In general terms: In a radioligand displacement assay an active substance lowers the binding of a labelled ligand.

For experiment [3], the target named is T3, hSNORF33 (Homo sapiens, UniProt Q96RJ0).
T3 sequence (Q96RJ0 1-339): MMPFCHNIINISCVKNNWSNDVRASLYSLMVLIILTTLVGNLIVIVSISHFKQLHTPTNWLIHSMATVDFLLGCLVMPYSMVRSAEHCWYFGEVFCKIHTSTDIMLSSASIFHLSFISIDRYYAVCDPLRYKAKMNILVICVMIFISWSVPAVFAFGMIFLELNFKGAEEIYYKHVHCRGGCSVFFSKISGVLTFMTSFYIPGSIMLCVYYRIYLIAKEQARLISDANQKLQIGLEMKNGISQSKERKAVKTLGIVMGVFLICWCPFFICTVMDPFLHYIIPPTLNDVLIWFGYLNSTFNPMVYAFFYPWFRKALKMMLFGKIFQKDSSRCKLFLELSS
Description: [3H]-TYR binding (saturation and displacement) to human SNORF33 COS-7 membranes. More on the design: expressed in transfected cells; host or cells: COS-7 (membranes). To be noted: for Ki: human SNORF33 in transfected COS-7 membranes. Here is the method: as §1, §2

The target in experiment [4] is T1, mouse SNORF33. Description: cAMP assay at mouse SNORF33. The format is cell-based. Here is the method: (§3) The receptor-mediated stimulation or inhibition of cyclic AMP (cAMP) formation may be assayed in cells expressing the mammalian receptors. Cells are plated in 96-well plates or other vessels and preincubated in a buffer such as HEPES buffered saline (NaCl (150 mM), CaCl2 (1 mM), KCl (5 mM), glucose (10 mM)) supplemented with a phosphodiesterase inhibitor such as 5 mM theophylline, with or without protease inhibitor cocktail (For example, a typical inhibitor cocktail contains 2 μg/ml aprotinin, […] leupeptin, and 10 μg/ml phosphoramidon.) for 20 min at 37° C., in 5% CO2. Test compounds are added with or without […] forskolin and incubated for an additional 10 min at 37° C. The medium is then aspirated and the reaction stopped by the addition of 100 mM HCl or other methods. The plates are stored at 4° C. for 15 min, and the cAMP content in the stopping solution is measured by radioimmunoassay. Radioactivity may be quantified using a gamma counter equipped with data reduction software. Specific modifications may be performed to optimize the assay for the receptor or to alter the detection method of cAMP.
(§4) COS-7 cells were transiently transfected with rSNORF33 gene using the calcium phosphate method and plated in 96-well plates. 48 hours after transfection, cells were washed twice with Dulbecco's phosphate buffered saline (PBS) supplemented with 10 mM HEPES, 10 mM glucose, 5 mM theophylline and 10 μM pargyline and were incubated in the same buffer for 20 min at 37° C., in […] 5% CO2. Test compounds were added and cells were incubated for an additional 10 min at 37° C. The medium was then aspirated and the reaction stopped by the addition of 100 mM HCl. The plates were stored at −20° C. for 2-5 days. For cAMP measurement, plates were thawed and the cAMP content in each well was measured by radioimmunoassay cAMP Scintillation Proximity Assay (Amersham Pharmacia Biotech). Radioactivity was quantified using microbeta Trilux counter (Wallac).
(Cyclic AMP is a second messenger, typically raised through Gs and lowered through Gi signalling.)

Experiment [5] concerns the target T3, hSNORF33. Description: Intracellular cAMP release in human SNORF33-transfected COS-7 cells. Format: cell-based. Also noted: expressed in transfected cells; host or cells: COS-7 (transient). The procedure: as §3, §4
In experiment [6] the target is T2, rSNORF33. Put plainly: Intracellular cAMP release in rSNORF33-transfected COS-7 cells. The format is cell-based. Also noted: expressed in transfected cells; host or cells: COS-7 (transient). Here is the method: as §3, §4

“And” between values parts separate entries of the source, which are not always exact repeats. Identical values can stand only once. Like-named read-outs stand apart in the source and are kept apart here. Where only a bound is given, the exact number is not on record here.

T2 sequence (Q923Y9 whole entry): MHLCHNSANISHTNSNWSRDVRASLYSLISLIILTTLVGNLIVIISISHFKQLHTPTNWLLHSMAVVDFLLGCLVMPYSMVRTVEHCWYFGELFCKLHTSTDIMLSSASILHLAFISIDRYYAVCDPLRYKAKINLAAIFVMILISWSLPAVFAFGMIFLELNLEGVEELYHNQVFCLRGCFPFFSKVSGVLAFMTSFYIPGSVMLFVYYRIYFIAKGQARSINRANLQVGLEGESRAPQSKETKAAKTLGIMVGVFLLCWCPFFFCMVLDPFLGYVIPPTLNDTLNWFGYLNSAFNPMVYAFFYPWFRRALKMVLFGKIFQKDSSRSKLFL
T1 sequence (Q923Y8 whole entry): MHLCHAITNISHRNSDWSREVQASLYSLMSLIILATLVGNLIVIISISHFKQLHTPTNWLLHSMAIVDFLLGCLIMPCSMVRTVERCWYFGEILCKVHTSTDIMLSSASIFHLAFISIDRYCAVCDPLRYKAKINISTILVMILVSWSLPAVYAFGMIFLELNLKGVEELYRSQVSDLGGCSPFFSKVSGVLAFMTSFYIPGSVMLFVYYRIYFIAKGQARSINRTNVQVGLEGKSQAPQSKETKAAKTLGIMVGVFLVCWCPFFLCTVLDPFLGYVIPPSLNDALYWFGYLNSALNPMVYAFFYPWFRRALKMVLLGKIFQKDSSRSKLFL

For orientation: Ki means a measure of affinity in units of concentration, obtained from inhibition or displacement. With `Cl.Cl.Clc1cccc(N2CCNCC2)c1` [m-CPP, 1-(3-chlorophenyl)piperazine dihydrochloride], the Ki at mouse SNORF33 [1] (n=2, read-out: Average Ki) is 3550 nM; at rSNORF33 [2] it was 83 nM; at hSNORF33 [3] (read-out: Ki, displacement of [3H]-tyramine), over 10000 nM. In addition, at hSNORF33 [3] (human SNORF33, up to 10 μM), the “Displacement of [3H]TYR binding” value is recorded as “no displacement”.
The EC50 is the concentration needed to bring the measured effect to its halfway point. Turning to `NCCc1ccccc1` [β-Phenylethylamine (PEA), β-Phenylethylamine], the “Agonism in the cAMP assay” value at mouse SNORF33 [4] was “full agonists”. The Ki on mouse SNORF33 [1] (read-out: Ki (individual determinations)) was 19 nM and 47 nM; at rSNORF33 [2], 56 ± 21 nM; at hSNORF33 [3] (read-out: Mean Ki ± S.D.M., displacement of [3H]-tyramine) it was 8 ± 6 nM. The EC50 was determined as 216 ± 149 nM on hSNORF33 [5] and 10 ± 1 nM on rSNORF33 [6].
